Drawing on ChEMBL document CHEMBL4823263, “Discovery of 2-(3-(3-Carbamoylpiperidin-1-yl)phenoxy)acetic Acid Derivatives as Novel Small-Molecule Inhibitors of the β-Catenin/B-Cell Lymphoma 9 Protein-Protein Interaction” (J Med Chem, 2021), this text covers IC50 and Activity for one compound.

The structures appear in SMILES notation.

Broadly, the IC50 is the concentration that gives 50% inhibition.

For data set [1], the system named is SW480. The data set is described as follows: Antiproliferative activity against human SW480 cells incubated for 72 hrs by MTS assay. Conditions: SW480, 72 h. The format is functional, cell-based. For orientation: Formazan colour is commonly taken as a measure of viable cells.
The nature of data set [2]: Downregulation of HPRT level in human SW480 cells at 3.3 uM incubated for […] by quantitative real-time PCR analysis relative to control. Conditions: sw480, 3.3 µM. The format is ADME, cell-based. (Quantitative PCR measures a nucleic acid by following its amplification.)
In data set [3] the target is Protein Wnt-3a (Homo sapiens) (UniProt P56704). In words: Inhibition of Wnt3a in human SW480 cells assessed as cyclin D1 level at 3.3 uM incubated for […] by quantitative real-time PCR analysis relative to control. The class given is cell-based. Set-up: scale not given: the % may be the effect or the level left.
Sequence of Protein Wnt-3a (Homo sapiens) (P56704 whole entry): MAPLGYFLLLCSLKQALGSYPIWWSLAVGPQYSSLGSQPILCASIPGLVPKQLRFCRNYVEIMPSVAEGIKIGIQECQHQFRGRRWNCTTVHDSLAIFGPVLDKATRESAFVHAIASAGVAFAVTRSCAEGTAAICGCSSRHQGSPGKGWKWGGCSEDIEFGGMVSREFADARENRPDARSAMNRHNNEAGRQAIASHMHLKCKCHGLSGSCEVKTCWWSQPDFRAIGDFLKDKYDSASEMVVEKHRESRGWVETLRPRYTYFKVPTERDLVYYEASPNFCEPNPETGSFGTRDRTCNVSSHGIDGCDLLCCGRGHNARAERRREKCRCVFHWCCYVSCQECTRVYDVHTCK
For data set [4], the target named is Protein Wnt-3a (Mus musculus) (UniProt P27467). The data set is described as follows: Inhibition of mouse wnt3a expressed in human MDA-MB-231 cells assessed as cyclin D1 level at 10 uM incubated for […] by quantitative real-time PCR analysis relative to control. The class given is cell-based. Set-up: scale not given: the % may be the effect or the level left.
Sequence of Protein Wnt-3a (Mus musculus) (P27467 whole entry): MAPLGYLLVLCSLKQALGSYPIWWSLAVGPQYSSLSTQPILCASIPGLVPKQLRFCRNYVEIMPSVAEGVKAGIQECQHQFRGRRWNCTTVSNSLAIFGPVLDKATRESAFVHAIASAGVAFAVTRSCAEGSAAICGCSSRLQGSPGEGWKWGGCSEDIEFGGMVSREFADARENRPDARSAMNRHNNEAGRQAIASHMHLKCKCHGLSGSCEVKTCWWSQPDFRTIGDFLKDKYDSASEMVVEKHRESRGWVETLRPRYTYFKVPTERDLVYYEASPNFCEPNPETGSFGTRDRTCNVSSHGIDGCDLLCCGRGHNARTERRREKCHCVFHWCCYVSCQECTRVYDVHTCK

Data set [5] concerns the target beta-catenin-B-cell lymphoma 9 protein complex (Homo sapiens) (UniProt P35222+O00512). In words: Disruption of full length beta-catenin/BCL9 interaction in human HCT116 cells incubated for 24 hrs by co-immunoprecipitation assay. The class given is cell-based. Conditions: HCT-116.
Data set [6] has as its target Protein Wnt-3a (Mus musculus) (UniProt P27467). In words: Inhibition of mouse wnt3a expressed in human MDA-MB-231 cells assessed as cyclin D1 level at 3.3 uM incubated for […] by quantitative real-time PCR analysis relative to control. The class given is cell-based. Set-up: scale not given: the % may be the effect or the level left.
Data set [7] concerns SW480. The data set is described as follows: Inhibition of Wnt signalling in human SW480 cells assessed as reduction in cyclinD1 expression incubated for 24 hrs by Western blot analysis. The format is cell-based. For orientation: A western blot detects proteins with antibodies after separation by electrophoresis.
Data set [8] deals with Protein Wnt-3a (Mus musculus) (UniProt P27467). The data set is described as follows: Inhibition of mouse wnt3a expressed in human MDA-MB-231 cells assessed as LEF1 level at 30 uM incubated for […] by quantitative real-time PCR analysis relative to control. The format is cell-based. Details: scale not given: the % may be the effect or the level left.
Data set [9] relates to SW480. The data set is described as follows: Inhibition of Wnt/beta-catenin transactivation signalling in human SW480 cells harboring mutant tcf4 binding sites assessed as relative activity at 3.125 uM incubated for 24 hrs by FOPFlash luciferase assay relative to control. The format is cell-based. Set-up: scale not given: the % may be the effect or the level left.
A short description of data set [10]: Downregulation of HPRT in human MDA-MB-231 cells assessed as HPRT level at 30 uM incubated for […] by quantitative real-time PCR analysis relative to control. Conditions: mda-mb-231, 30 µM. The format is ADME, cell-based.
Data set [11] can be described thus: Downregulation of HPRT level in human SW480 cells at 10 uM incubated for […] by quantitative real-time PCR analysis relative to control. The class given is ADME, cell-based. Conditions: sw480, 10 µM.
Data set [12] addresses Protein Wnt-3a (Mus musculus) (UniProt P27467). In words: Inhibition of mouse wnt3a expressed in human MDA-MB-231 cells assessed as HPRT level at 30 uM incubated for […] by quantitative real-time PCR analysis relative to control. The format is cell-based. Set-up: scale not given: the % may be the effect or the level left.
Data set [13] addresses Protein Wnt-3a (Homo sapiens) (UniProt P56704). The data set is described as follows: Inhibition of Wnt3a in human SW480 cells assessed as cyclin D1 level at 30 uM incubated for […] by quantitative real-time PCR analysis relative to control. The format is cell-based. Set-up: scale not given: the % may be the effect or the level left.
Data set [14] shares this target. In words: Inhibition of Wnt3a in human SW480 cells assessed as LEF1 level at 10 uM incubated for […] by quantitative real-time PCR analysis relative to control. Details: scale not given: the % may be the effect or the level left. The class given is cell-based.
Another data set concerns MDA-MB-231. In words: Antiproliferative activity against human MDA-MB-231 cells incubated for 72 hrs by MTS assay. The class given is functional, cell-based. Conditions: MDA-MB-231, 72 h.
Data set [15] has as its system SW480. The data set is described as follows: (§1) Inhibition of Wnt/beta-catenin transactivation signalling in human SW480 cells harboring wild type tcf4 binding sites incubated for 24 hrs by TOPFlash luciferase assay. The class given is cell-based.
Data set [16] is described as follows: as §1. The class given is cell-based.
For data set [17], the system named is SW480. In words: Antiproliferative activity against human SW480 cells harboring beta-catenin pcDNA3.1 vector incubated for 72 hrs by MTS assay. The class given is functional, cell-based. Conditions: SW480, 72 h.
Data set [18] in a line: Downregulation of HPRT level in human SW480 cells at 30 uM incubated for […] by quantitative real-time PCR analysis relative to control. The class given is ADME, cell-based. Conditions: sw480, 30 µM.

On to `CC(C)(Oc1cccc(N2CCC[C@H](C(=O)N(Cc3ccc(-c4cccs4)cc3)C3CC3)C2)c1)C(=O)NS(=O)(=O)c1ccc(C#N)cc1`, for which the IC50 with SW480 [1] stood at 16.3 µM; in the data set on MDA-MB-231, 14.3 µM; in data set [16], 6.6 µM; in the data set with SW480 [17], 86 µM. The Activity in data set [2] is 98%; in data set [3], 53%; in data set [4] it was 77%; in data set [5], “Dose-Dependent Effect”; in [6], 94%; in the data set with SW480 [7], “Dose-Dependent Effect”. Further, the Activity in data set [8] is 76%; in the data set on SW480 [9], 99%; in [10], 99%; in [11], 102%; in data set [12], 99%; in data set [13], 31%. Moreover, the Activity in data set [14] was 77%; with SW480 [15], “Dose-Dependent Effect”; in [18], 99%.
